Species on record: Rattus norvegicus
Experiment: Open TG-GATES - Regimen: Daily Repeat
Assay type: toxicity, organism-based, Sprague-Dawley
Set-up: regimen Daily Repeat, gender Male, age 6 weeks
Conditions: in vivo, po, 50 mg/kg, route gavage, dose level Middle; for APTT / Bas / Eos / Fbg / Hb / Ht / Lym / MCH / MCHC / MCV / Mono / Neu / PT / Plat / RBC / Ret / WBC: tissue Blood; for KIDNEY_L / KIDNEY_R / KIDNEY_TOTAL: tissue Kidney; for LIVER: tissue Liver; for ALP / ALT / AST / BUN / CRE / Ca / DBIL / GLC / IP / K / LDH / Na / PL / RALB / TBIL / TC / TP / gamma-GTP / TG: tissue Plasma

For Oc1ncnc2[nH]ncc12 [ALLOPURINOL], the APTT (72 h, time 3 day) was 16.2 s, the Bas (72 h, time 3 day) was 0% and the Eos (72 h, time 3 day) was 1.4%. For the same compound, the Fbg (72 h, time 3 day) was 261.6 mg/dL, the Hb (72 h, time 3 day) was 13.5 g/dL and the Ht (72 h, time 3 day) was 40%. For the same compound, the Lym (72 h, time 3 day) was 75%, the MCH (72 h, time 3 day) was 21.9 pg and the MCHC (72 h, time 3 day) was 33.7%. For the same compound, the MCV (72 h, time 3 day) was 64.9 fL, the Mono (72 h, time 3 day) was 9.2% and the Neu (72 h, time 3 day) was 14.4%. It also gave a PT (72 h, time 3 day) of 12.3 s, a Plat (72 h, time 3 day) of 108.7 x10_4/uL and an RBC (72 h, time 3 day) of 618 x10_4/ul. It also gave a Ret (72 h, time 3 day) of 6.3%, a WBC (72 h, time 3 day) of 139.1 x10_2/uL and a KIDNEY_L (72 h, time 3 day) of 1.2 g. For the same compound, the KIDNEY_R (72 h, time 3 day) was 1.2 g, the KIDNEY_TOTAL (72 h, time 3 day) was 2.3 g and the LIVER (72 h, time 3 day) was 11.5 g. It also gave an ALP (72 h, time 3 day) of 918 IU/L, an ALT (72 h, time 3 day) of 33.8 IU/L and an AST (72 h, time 3 day) of 65.8 IU/L. It also gave a BUN (72 h, time 3 day) of 20.6 mg/dL, a CRE (72 h, time 3 day) of 0.5 mg/dL and a Ca (72 h, time 3 day) of 11.1 mg/dL. It also gave a DBIL (72 h, time 3 day) of 0.004 mg/dL, a GLC (72 h, time 3 day) of 194.4 mg/dL and an IP (72 h, time 3 day) of 7 mg/dL. For the same compound, the K (72 h, time 3 day) was 4.7 meq/L, the LDH (72 h, time 3 day) was 111.4 IU/L and the Na (72 h, time 3 day) was 138.2 meq/L. The PL (72 h, time 3 day) was 150 mg/dL, the RALB (72 h, time 3 day) was 3.9 g/dL and the TBIL (72 h, time 3 day) was 0.3 mg/dL. For the same compound, the TC (72 h, time 3 day) was 79.4 mg/dL, the TP (72 h, time 3 day) was 6.1 g/dL and the gamma-GTP (72 h, time 3 day) was 2 IU/L. It also gave a TERMINAL_BW ([…], time 7 day) of 270.7 g, a TERMINAL_BW ([…], time 14 day) of 308.6 g and a TERMINAL_BW ([…], time 28 day) of 380.1 g. The APTT ([…], time 7 day) was 16.4 s, the Bas ([…], time 7 day) was 0% and the Eos ([…], time 7 day) was 0.4%. The Fbg ([…], time 7 day) was 246 mg/dL, the Hb ([…], time 7 day) was 14.2 g/dL and the Ht ([…], time 7 day) was 42.3%. It also gave a Lym ([…], time 7 day) of 86.4%, an MCH ([…], time 7 day) of 21.4 pg and an MCHC ([…], time 7 day) of 33.6%. For the same compound, the MCV ([…], time 7 day) was 63.9 fL, the Mono ([…], time 7 day) was 3.8% and the Neu ([…], time 7 day) was 9.4%. The PT ([…], time 7 day) was 11.8 s, the Plat ([…], time 7 day) was 120 x10_4/uL and the RBC ([…], time 7 day) was 661.2 x10_4/ul. For the same compound, the Ret ([…], time 7 day) was 5.3%, the WBC ([…], time 7 day) was 129.4 x10_2/uL and the APTT ([…], time 14 day) was 16.5 s. It also gave a Bas ([…], time 14 day) of 0%, an Eos ([…], time 14 day) of 0.6% and a Fbg ([…], time 14 day) of 232.2 mg/dL. The Hb ([…], time 14 day) was 14.9 g/dL, the Ht ([…], time 14 day) was 44.6% and the Lym ([…], time 14 day) was 84%. It also gave an MCH ([…], time 14 day) of 20.8 pg, an MCHC ([…], time 14 day) of 33.4% and an MCV ([…], time 14 day) of 62.2 fL. The Mono ([…], time 14 day) was 3.6%, the Neu ([…], time 14 day) was 12.2% and the PT ([…], time 14 day) was 11.9 s. It also gave a Plat ([…], time 14 day) of 111.6 x10_4/uL, an RBC ([…], time 14 day) of 716 x10_4/ul and a Ret ([…], time 14 day) of 4.2%. It also gave a WBC ([…], time 14 day) of 114 x10_2/uL, an APTT ([…], time 28 day) of 16.8 s and a Bas ([…], time 28 day) of 0%. For the same compound, the Eos ([…], time 28 day) was 1%, the Fbg ([…], time 28 day) was 225.6 mg/dL and the Hb ([…], time 28 day) was 15.2 g/dL. For the same compound, the Ht ([…], time 28 day) was 45%, the Lym ([…], time 28 day) was 78.8% and the MCH ([…], time 28 day) was 19.8 pg. For the same compound, the MCHC ([…], time 28 day) was 33.8%, the MCV ([…], time 28 day) was 58.5 fL and the Mono ([…], time 28 day) was 4.8%. For the same compound, the Neu ([…], time 28 day) was 15.6%, the PT ([…], time 28 day) was 12.1 s and the Plat ([…], time 28 day) was 101.2 x10_4/uL. The RBC ([…], time 28 day) was 770.4 x10_4/ul, the Ret ([…], time 28 day) was 2.9% and the WBC ([…], time 28 day) was 128.2 x10_2/uL. It also gave a KIDNEY_L ([…], time 7 day) of 1.2 g, a KIDNEY_R ([…], time 7 day) of 1.2 g and a KIDNEY_TOTAL ([…], time 7 day) of 2.4 g. For the same compound, the KIDNEY_L ([…], time 14 day) was 1.3 g, the KIDNEY_R ([…], time 14 day) was 1.3 g and the KIDNEY_TOTAL ([…], time 14 day) was 2.5 g. It also gave a KIDNEY_L ([…], time 28 day) of 1.5 g, a KIDNEY_R ([…], time 28 day) of 1.5 g and a KIDNEY_TOTAL ([…], time 28 day) of 3.1 g. The LIVER ([…], time 7 day) was 13.3 g, the LIVER ([…], time 14 day) was 14 g and the LIVER ([…], time 28 day) was 15.1 g. For the same compound, the ALP ([…], time 7 day) was 917.6 IU/L, the ALT ([…], time 7 day) was 33.4 IU/L and the AST ([…], time 7 day) was 64 IU/L. It also gave a BUN ([…], time 7 day) of 20.2 mg/dL, a CRE ([…], time 7 day) of 0.5 mg/dL and a Ca ([…], time 7 day) of 11.4 mg/dL. It also gave a DBIL ([…], time 7 day) of 0.034 mg/dL, a GLC ([…], time 7 day) of 207.2 mg/dL and an IP ([…], time 7 day) of 7.6 mg/dL. For the same compound, the K ([…], time 7 day) was 4.3 meq/L, the LDH ([…], time 7 day) was 87 IU/L and the Na ([…], time 7 day) was 140.2 meq/L. For the same compound, the PL ([…], time 7 day) was 158.2 mg/dL, the RALB ([…], time 7 day) was 3.9 g/dL and the TBIL ([…], time 7 day) was 0.3 mg/dL. For the same compound, the TC ([…], time 7 day) was 74.4 mg/dL, the TG ([…], time 7 day) was 144.4 mg/dL and the TP ([…], time 7 day) was 6.1 g/dL. For the same compound, the gamma-GTP ([…], time 7 day) was 1.2 IU/L, the ALP ([…], time 14 day) was 645.2 IU/L and the ALT ([…], time 14 day) was 29.8 IU/L. For the same compound, the AST ([…], time 14 day) was 63 IU/L, the BUN ([…], time 14 day) was 20.2 mg/dL and the CRE ([…], time 14 day) was 0.6 mg/dL. It also gave a DBIL ([…], time 14 day) of 0.002 mg/dL, a GLC ([…], time 14 day) of 200 mg/dL and an IP ([…], time 14 day) of 7.5 mg/dL. It also gave a K ([…], time 14 day) of 4.5 meq/L, an LDH ([…], time 14 day) of 71.2 IU/L and a Na ([…], time 14 day) of 139.6 meq/L. It also gave a PL ([…], time 14 day) of 147.4 mg/dL, an RALB ([…], time 14 day) of 3.8 g/dL and a TBIL ([…], time 14 day) of 0.3 mg/dL. It also gave a TC ([…], time 14 day) of 65.8 mg/dL, a TG ([…], time 14 day) of 131.2 mg/dL and a TP ([…], time 14 day) of 6.2 g/dL. For the same compound, the gamma-GTP ([…], time 14 day) was 1.6 IU/L, the ALP ([…], time 28 day) was 574.8 IU/L and the ALT ([…], time 28 day) was 29.2 IU/L. The AST ([…], time 28 day) was 60.6 IU/L, the BUN ([…], time 28 day) was 22 mg/dL and the CRE ([…], time 28 day) was 0.6 mg/dL. For the same compound, the DBIL ([…], time 28 day) was 0.014 mg/dL, the GLC ([…], time 28 day) was 187.4 mg/dL and the IP ([…], time 28 day) was 6.3 mg/dL. It also gave a K ([…], time 28 day) of 4.6 meq/L, an LDH ([…], time 28 day) of 63.6 IU/L and a Na ([…], time 28 day) of 139.4 meq/L. The PL ([…], time 28 day) was 145.8 mg/dL, the RALB ([…], time 28 day) was 4 g/dL and the TBIL ([…], time 28 day) was 0.3 mg/dL. For the same compound, the TC ([…], time 28 day) was 66 mg/dL, the TG ([…], time 28 day) was 147 mg/dL and the TP ([…], time 28 day) was 6.3 g/dL.

— ChEMBL document CHEMBL3885861, “Open TG-GATES”
